From ChEMBL document CHEMBL1158696, “Bioactive asterosaponins from the starfish Culcita novaeguineae” (J Nat Prod, 2005)

Key:
[1] = test system: Bel-7402; assay: Cytotoxicity against human Bel7402 cells after 72 hrs by SRB assay; type: functional, cell-based; settings: Bel-7402, 72 h
[2] = test system: K562; assay: Cytotoxicity against human K562 cells after 72 hrs by MTT assay; type: functional, cell-based; settings: K562, 72 h

| Compound | IC50 [1] | IC50 [2] |
| --- | --- | --- |
| CC(C)[C@H](C)[C@@H]1O[C@H]1[C@](C)(O)[C@H]1CC[C@H]2[C@@H]3C[C@H](O[C@@H]4O[C@H](CO)[C@@H](O)[C@H](O[C@@H]5O[C@H](C)[C@@H](O[C@@H]6OC[C@H](O)[C@H](O)[C@H]6O[C@@H]6O[C@H](C)[C@H](O)[C@H](O)[C@H]6O)[C@H](O)[C@H]5O[C@@H]5O[C@H](C)[C@H](O)[C@H](O)[C@H]5O)[C@H]4O)[C@H]4C[C@@H](OS(=O)(=O)[O-])CC[C@]4(C)C3=CC[C@]12C.[Na+] [NOVAEGUINOSIDE II] | 4.1 µg/mL | 4.9 µg/mL |
| CC(C)[C@H](C)[C@@H]1O[C@H]1[C@](C)(O)[C@H]1CC[C@H]2[C@@H]3C[C@H](O[C@@H]4O[C@H](CO)[C@@H](O)[C@H](O[C@@H]5O[C@H](C)[C@@H](O[C@@H]6O[C@H](C)[C@H](O)[C@H](O)[C@H]6O[C@@H]6O[C@H](C)[C@H](O)[C@H](O)[C@H]6O)[C@H](O)[C@H]5O[C@@H]5O[C@H](C)[C@H](O)[C@H](O)[C@H]5O)[C@H]4O)[C@H]4C[C@@H](OS(=O)(=O)[O-])CC[C@]4(C)C3=CC[C@]12C.[Na+] [NOVAEGUINOSIDE I] | 9.2 µg/mL | 8.6 µg/mL |
| CC(C)CC(=O)C[C@](C)(O)[C@H]1CC[C@H]2[C@@H]3C[C@H](O[C@@H]4O[C@H](C)[C@@H](O)[C@H](O[C@@H]5OC[C@@H](O[C@@H]6O[C@H](C)[C@H](O)[C@H](O)[C@H]6O[C@@H]6O[C@H](C)[C@H](O)[C@H](O)[C@H]6O)[C@H](O)[C@H]5O[C@@H]5O[C@H](C)[C@H](O)[C@H](O)[C@H]5O)[C@H]4O)[C@H]4C[C@@H](OS(=O)(=O)[O-])CC[C@]4(C)C3=CC[C@@]21C.[Na+] [regularoside B] | 14.5 µg/mL | 17.4 µg/mL |
